{"source": "ChEMBL document CHEMBL1201862", "about": "“PubChem BioAssay data set” (2004)", "key": {"[1]": {"test_system": "Streptococcus sp. 'group A'", "experiment": "Streptococcus pyogenes SK(-)GAS viability under kanamycin – luminescence, BacTiterGlo, confirmation, counter-screen for streptokinase expression inhibitor project, dose response (AID 1900)", "format": "functional, organism-based"}, "[2]": {"molecular_target": "Disintegrin and metalloproteinase domain-containing protein 17 (Homo sapiens, UniProt P78536)", "sequence (P78536 whole entry, the tested form may be a part)": "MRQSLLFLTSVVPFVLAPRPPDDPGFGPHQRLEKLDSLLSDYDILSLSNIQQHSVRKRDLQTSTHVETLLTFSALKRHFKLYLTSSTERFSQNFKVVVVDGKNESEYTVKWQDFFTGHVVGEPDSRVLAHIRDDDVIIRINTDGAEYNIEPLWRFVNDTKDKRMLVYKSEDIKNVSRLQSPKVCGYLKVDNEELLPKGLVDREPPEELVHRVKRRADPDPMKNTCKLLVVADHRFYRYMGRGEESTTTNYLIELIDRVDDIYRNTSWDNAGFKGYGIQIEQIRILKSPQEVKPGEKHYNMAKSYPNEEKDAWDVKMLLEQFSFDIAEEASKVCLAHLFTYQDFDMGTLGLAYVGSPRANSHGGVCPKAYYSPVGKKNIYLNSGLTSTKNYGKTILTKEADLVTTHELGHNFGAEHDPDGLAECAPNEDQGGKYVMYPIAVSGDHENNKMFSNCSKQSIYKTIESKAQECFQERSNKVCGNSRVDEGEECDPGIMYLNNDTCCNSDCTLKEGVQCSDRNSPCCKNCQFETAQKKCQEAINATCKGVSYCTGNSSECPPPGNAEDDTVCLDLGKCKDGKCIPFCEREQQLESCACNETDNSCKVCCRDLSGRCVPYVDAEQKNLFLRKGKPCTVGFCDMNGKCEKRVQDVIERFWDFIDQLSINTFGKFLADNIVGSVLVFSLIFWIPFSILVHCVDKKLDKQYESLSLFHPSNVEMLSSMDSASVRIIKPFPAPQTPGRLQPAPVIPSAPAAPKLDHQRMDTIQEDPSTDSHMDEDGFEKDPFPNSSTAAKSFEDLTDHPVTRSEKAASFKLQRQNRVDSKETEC", "experiment": "inhibition of ADAM17 substrate cleavage – biochemical, quenched FRET substrate, counter-screen for ADAM10 exosite inhibitor project, dose response (AID 743253)"}, "Streptococcus": {"test_system": "Streptococcus", "experiment": "GAS UMAA2166 growth inhibition – luminescence, BacTiterGlo, counter-screen for streptokinase expression inhibitor project, dose response (AID 1915);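 further: potency for reduction of bacterial viability or growth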", "format": "functional, organism-based"}, "Streptokinase A": {"molecular_target": "T1, Streptokinase A (Streptococcus pyogenes serotype M1, UniProt P10520)", "T1 sequence (P10520 whole entry)": "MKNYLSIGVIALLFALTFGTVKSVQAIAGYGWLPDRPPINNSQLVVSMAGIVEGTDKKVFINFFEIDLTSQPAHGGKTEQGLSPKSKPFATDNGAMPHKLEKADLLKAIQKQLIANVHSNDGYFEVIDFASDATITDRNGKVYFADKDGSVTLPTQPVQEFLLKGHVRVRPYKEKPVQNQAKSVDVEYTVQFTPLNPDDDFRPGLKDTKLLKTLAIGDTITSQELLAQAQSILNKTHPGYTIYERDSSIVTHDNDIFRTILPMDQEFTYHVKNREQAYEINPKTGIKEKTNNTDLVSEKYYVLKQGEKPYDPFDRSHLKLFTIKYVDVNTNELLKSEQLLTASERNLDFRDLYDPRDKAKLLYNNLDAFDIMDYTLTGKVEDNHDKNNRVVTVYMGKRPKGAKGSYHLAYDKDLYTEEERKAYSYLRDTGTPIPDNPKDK", "experiment": "viability-normalized secreted streptokinase activity reduction – plasminogen activation absorbance, OD405, dose response (AID 1914);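 further: secreted streptokinase activity via plasminogen activation per viability signal from cell pellet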", "format": "functional, Streptococcus pyogenes M1 GAS"}, "Transthyretin": {"molecular_target": "Transthyretin (Homo sapiens, UniProt P02766)", "experiment": "Luminescence-based cell-based high throughput dose response assay to identify activators of Transthyretin (TTR) transcription.", "format": "functional"}, "[3]": {"experiment": "Counterscreen for inhibitors of Trypanosoma brucei methionyl tRNA synthetase (MetRS): Luminescence-based cell-based high throughput dose response assay to identify compounds that are cytotoxic to Jurkat human T lymphocyte cells.", "format": "functional"}, "[4]": {"molecular_target": "T2, Methionyl-tRNA synthetase, putative (Trypanosoma brucei brucei, UniProt Q38C91)", "T2 sequence (Q38C91 whole entry)": "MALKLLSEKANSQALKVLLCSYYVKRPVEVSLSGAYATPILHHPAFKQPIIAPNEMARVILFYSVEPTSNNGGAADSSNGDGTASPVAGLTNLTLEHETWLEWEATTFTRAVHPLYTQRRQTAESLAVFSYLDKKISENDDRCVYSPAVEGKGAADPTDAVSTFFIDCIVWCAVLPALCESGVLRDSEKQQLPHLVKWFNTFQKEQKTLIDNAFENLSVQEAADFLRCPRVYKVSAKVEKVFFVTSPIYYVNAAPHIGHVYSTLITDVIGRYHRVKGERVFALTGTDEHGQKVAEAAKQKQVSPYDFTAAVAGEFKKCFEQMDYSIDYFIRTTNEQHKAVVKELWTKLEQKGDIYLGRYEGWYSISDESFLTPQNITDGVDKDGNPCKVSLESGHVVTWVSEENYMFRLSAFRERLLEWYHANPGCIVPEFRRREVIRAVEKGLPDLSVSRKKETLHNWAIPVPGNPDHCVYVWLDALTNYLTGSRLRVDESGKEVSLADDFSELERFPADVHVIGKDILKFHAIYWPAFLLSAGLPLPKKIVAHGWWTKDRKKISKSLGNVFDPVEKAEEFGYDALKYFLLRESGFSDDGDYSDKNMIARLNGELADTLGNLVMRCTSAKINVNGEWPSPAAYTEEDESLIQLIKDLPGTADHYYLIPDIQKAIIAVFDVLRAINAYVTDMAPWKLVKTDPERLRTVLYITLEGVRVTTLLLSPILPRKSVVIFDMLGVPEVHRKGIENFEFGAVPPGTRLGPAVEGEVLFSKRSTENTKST", "format": "functional, Trypanosoma brucei brucei strain 927/4 GUTat10.1"}, "[5]": {"experiment": "Late stage counterscreen for inhibitors of Trypanosoma brucei methionyl tRNA synthetase (MetRS): Luminescence-based cell-based high throughput dose response assay to identify compounds that are cytotoxic to Jurkat human T lymphocyte cells.", "format": "functional"}, "[6]": {"molecular_target": "T2, Methionyl-tRNA synthetase, putative", "format": "functional, Trypanosoma brucei brucei strain 927/4 GUTat10.1", "remark": "listed apart in the source"}, "[7]": {"molecular_target": "Heat shock protein HSP 90-alpha (Homo sapiens, UniProt P07900)", "experiment": "Luminescence-based dose response biochemical high throughput screening assay for inhibitors of the Heat Shock Protein 90 (HSP90). [Related pubchem assays: 1831 (Summary AID.), 1846 (Confirmation screen.), 1789 (Primary screen.)]"}, "Prothrombin": {"molecular_target": "Prothrombin (Homo sapiens, UniProt P00734)", "experiment": "Thrombin 1536 HTS Dose Response Confirmation. [Related pubchem assays: 1046 (Thrombin 1536 HTS; hits were confirmed in this assay)]", "format": "functional"}, "Cytochrome P450 3A4": {"molecular_target": "Cytochrome P450 3A4 (Homo sapiens, UniProt P08684)", "sequence (P08684 whole entry)": "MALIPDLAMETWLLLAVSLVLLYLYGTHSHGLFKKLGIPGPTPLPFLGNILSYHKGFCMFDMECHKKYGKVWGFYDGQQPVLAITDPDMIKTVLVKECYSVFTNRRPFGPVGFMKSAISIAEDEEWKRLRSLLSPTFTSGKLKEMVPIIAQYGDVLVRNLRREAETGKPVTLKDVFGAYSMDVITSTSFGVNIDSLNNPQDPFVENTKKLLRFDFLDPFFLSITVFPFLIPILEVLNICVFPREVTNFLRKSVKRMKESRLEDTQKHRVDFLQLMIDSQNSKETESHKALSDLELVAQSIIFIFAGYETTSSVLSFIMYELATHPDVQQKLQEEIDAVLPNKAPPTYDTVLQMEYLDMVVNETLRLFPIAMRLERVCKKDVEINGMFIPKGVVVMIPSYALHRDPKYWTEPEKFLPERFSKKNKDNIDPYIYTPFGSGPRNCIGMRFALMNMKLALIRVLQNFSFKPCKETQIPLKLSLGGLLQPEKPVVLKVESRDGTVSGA"}, "[8]": {"molecular_target": "T3, Corticotropin-releasing factor receptor 2/Corticotropin-releasing factor-binding protein (Homo sapiens, UniProt P24387+Q13324)", "T3 sequence (Q13324 whole entry)": "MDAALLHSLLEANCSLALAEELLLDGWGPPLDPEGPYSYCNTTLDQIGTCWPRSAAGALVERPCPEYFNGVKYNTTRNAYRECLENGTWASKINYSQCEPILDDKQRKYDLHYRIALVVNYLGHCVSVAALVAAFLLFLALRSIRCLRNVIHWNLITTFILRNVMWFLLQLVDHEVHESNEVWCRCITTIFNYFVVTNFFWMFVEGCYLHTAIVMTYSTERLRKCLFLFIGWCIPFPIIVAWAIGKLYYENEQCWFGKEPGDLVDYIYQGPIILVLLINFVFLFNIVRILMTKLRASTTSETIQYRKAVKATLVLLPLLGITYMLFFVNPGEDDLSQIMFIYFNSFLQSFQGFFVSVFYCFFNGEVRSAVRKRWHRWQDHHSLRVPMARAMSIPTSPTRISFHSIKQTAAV", "T3 sequence (P24387 whole entry)": "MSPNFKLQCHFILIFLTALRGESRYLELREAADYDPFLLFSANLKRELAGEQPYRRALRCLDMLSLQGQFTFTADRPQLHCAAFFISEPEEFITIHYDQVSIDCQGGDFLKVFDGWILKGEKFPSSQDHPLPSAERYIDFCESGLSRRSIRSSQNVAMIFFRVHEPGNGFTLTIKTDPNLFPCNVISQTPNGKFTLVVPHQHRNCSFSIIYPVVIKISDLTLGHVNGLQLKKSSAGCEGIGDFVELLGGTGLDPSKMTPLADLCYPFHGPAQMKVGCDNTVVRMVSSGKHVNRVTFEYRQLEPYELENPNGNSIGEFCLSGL", "experiment": "activators of CRF receptor 2 with binding protein – uHTS hits, confirmation (AID 602473)", "format": "functional", "settings": "read-out: EC50_Mean"}, "[9]": {"experiment": "HEK293 Cytotoxicity Assay Measured in Cell-Based System Using Plate Reader - 7071-01_Inhibitor_Dose_CherryPick_Activity_Set2.", "format": "functional"}, "[10]": {"experiment": "blockers of CRF-binding protein–CRF-R2 complex – cell-based, uHTS hits, 384-well, dose response (AID 651639)", "format": "functional, Homo sapiens", "settings": "read-out: IC50_Mean"}, "[11]": {"molecular_target": "T3, Corticotropin-releasing factor receptor 2/Corticotropin-releasing factor-binding protein", "experiment": "Dose Response confirmation of uHTS hits for small molecule antagonists of the CRF-binding protein and CRF-R2 receptor complex.", "format": "functional", "settings": "read-out: IC50_Mean"}, "HEK293": {"test_system": "HEK293", "experiment": "viability loss in HEK293T cells – cell-based, ATP luminescence, cherry-pick samples, cytotoxicity control, dose response (AID 687005);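 further: cells exposed to compound for 48 hours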", "format": "functional", "settings": "Homo sapiens"}, "[12]": {"molecular_target": "Aryl hydrocarbon receptor (Homo sapiens, UniProt P35869)", "sequence (P35869 whole entry)": "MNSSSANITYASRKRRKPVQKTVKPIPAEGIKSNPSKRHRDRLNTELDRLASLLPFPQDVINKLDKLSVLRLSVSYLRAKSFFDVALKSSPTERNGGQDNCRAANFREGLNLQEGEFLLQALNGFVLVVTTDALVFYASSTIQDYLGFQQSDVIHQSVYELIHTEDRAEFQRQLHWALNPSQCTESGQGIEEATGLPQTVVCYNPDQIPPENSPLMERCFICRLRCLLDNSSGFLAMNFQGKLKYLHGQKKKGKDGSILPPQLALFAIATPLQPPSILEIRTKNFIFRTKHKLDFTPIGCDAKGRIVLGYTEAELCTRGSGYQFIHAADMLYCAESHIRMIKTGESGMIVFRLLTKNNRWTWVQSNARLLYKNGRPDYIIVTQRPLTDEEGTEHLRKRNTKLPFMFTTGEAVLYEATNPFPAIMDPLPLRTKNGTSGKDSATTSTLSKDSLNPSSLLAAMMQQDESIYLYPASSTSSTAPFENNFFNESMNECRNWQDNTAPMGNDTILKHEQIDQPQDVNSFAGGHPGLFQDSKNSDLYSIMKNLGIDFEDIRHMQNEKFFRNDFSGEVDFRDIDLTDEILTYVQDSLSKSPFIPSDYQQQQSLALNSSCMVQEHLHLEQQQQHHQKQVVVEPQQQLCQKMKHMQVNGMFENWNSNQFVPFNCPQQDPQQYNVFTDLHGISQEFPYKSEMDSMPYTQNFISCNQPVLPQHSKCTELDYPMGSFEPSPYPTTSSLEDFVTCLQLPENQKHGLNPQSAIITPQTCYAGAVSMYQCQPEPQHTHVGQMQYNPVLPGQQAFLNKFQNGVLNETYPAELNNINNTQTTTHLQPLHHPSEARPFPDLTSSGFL", "experiment": "Luminescence-based cell-based high throughput dose response assay for activators of the Aryl Hydrocarbon Receptor (AHR). [Related pubchem assays: 2796 (Primary screen (AHR activators in singlicate)), 2845 (Confirmation screen (AHR activators in triplicate)), 434939 (Counterscreen (PXR activators in triplicate)), 2804 (Summary (AHR activators))]", "format": "ADME"}, "[13]": {"experiment": "A549 cell cytotoxicity, dose response, cytotoxicity control, plate reader, cherry-pick, antagonist series (AID 743412)", "format": "functional, cell-based"}, "[14]": {"experiment": "microbe, parasite or virus in culture", "format": "functional", "settings": "Mycobacterium tuberculosis"}, "[15]": {"experiment": "toxicity toward HepG2 liver cells – cell-based, plate reader, cherry-pick, antagonist series, cytotoxicity control, dose response (AID 743416)", "format": "functional"}, "[16]": {"experiment": "viability loss in HEK293 cells – cell-based, plate reader, cherry-picked samples, cytotoxicity control, dose response (AID 743446)", "format": "functional"}, "[17]": {"experiment": "blockade of melanocortin 4 receptor signaling – cell-based, plate reader, cherry pick, counter-screen for LGR2 antagonist project, dose response (AID 743444);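 further: transfected HEK 293 cells stimulated with alpha-MSH peptide; potency of inhibitors of the alpha-MSH evoked signal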", "format": "functional"}, "[18]": {"molecular_target": "T4, Microphthalmia-associated transcription factor (Homo sapiens, UniProt O75030)", "T4 sequence (O75030 whole entry)": "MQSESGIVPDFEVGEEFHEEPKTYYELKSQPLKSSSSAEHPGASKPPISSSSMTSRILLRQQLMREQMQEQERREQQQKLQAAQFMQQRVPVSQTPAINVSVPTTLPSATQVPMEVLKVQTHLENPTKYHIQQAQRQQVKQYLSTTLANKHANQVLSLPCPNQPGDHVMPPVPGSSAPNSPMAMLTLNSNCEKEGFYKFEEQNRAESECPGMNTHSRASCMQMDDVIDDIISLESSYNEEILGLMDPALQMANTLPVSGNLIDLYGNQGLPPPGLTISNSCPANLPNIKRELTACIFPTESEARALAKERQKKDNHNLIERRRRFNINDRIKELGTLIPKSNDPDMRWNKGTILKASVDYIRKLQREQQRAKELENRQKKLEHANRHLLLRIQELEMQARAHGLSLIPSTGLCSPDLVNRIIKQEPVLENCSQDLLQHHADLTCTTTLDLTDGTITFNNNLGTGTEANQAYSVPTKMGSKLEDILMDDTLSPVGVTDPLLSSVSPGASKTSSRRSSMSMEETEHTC", "experiment": "reducers of TRPM1 reporter luminescence, concentration series – cell-based, SK-MEL-5, cherry-picked, set 3, MITF inhibitor project, dose response (AID 493073);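 further: SK-MEL-5 melanoma cells with luciferase driven by the MITF target TRPM1 promoter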", "format": "functional"}, "[19]": {"experiment": "blockers of bursicon-stimulated LGR2 cAMP reporter – cell-based, HEK293, CRE-luciferase reporter, cherry pick, set 2, dose response (AID 743343);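 further: transfected cells were stimulated with diluted bursicon conditioned medium after compound addition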", "format": "functional"}}, "note": "The source made the active and inactive calls.", "data": [{"smiles": "O=[N+]([O-])c1cccnc1N1CCC(c2cc(-c3ccc(Cl)cc3)[nH]n2)CC1", "values": [{"measurement": "EC50", "setting": "[1]", "result": "5.14 µM (active)"}, {"measurement": "IC50", "setting": "[2]", "result": "> 69.5 µM (inactive)"}, {"measurement": "EC50", "setting": "Streptococcus", "result": "9.6 µM (active)"}, {"measurement": "EC50", "setting": "Streptokinase A", "result": "33.3 µM (active)"}]}, {"smiles": "COc1ccc(-c2noc(-c3cccs3)n2)cc1OC", "values": [{"measurement": "EC50", "setting": "Transthyretin", "result": "> 167 µM (inactive)"}]}, {"smiles": "O=C(NCc1nc2ccccc2[nH]1)C1=C[C@@H](C2CC2)C[C@@H](OCc2ccc(CO)cc2)O1", "values": [{"measurement": "IC50", "setting": "[3]", "result": "83.3 µM (inactive)"}, {"measurement": "IC50", "setting": "[4]", "result": "1.62 µM (active)"}, {"measurement": "IC50", "setting": "[5]", "result": "> 83.3 µM (inactive)"}, {"measurement": "IC50", "setting": "[6]", "result": "0.811 µM (active)"}]}, {"smiles": "Cc1ccc(C(=O)CSc2ccccc2C(=O)O)cc1", "values": [{"measurement": "IC50", "setting": "[7]", "result": "10.8 µM (not active)"}]}, {"smiles": "Cc1ccccc1-n1ncc2c(SCC(=O)N3c4ccccc4CC3C)ncnc21", "note": "(stereo not given)", "values": [{"measurement": "IC50", "setting": "Prothrombin", "result": "> 50 µM (not active)"}, {"measurement": "AC50", "setting": "Cytochrome P450 3A4", "result": "inconclusive"}, {"measurement": "EC50", "setting": "[8]", "result": "> 53 µM (inactive)"}, {"measurement": "AC50", "setting": "[9]", "result": "15.4 µM (active)"}, {"measurement": "IC50", "setting": "[10]", "result": "11.7 µM (active)"}, {"measurement": "IC50", "setting": "[11]", "result": "11 µM (active)"}, {"measurement": "AC50", "setting": "HEK293", "result": "15.4 µM (active)"}]}, {"smiles": "[O-][n+]1onc2c3cc(-c4ccccc4)nnc3ccc21", "values": [{"measurement": "EC50", "setting": "[12]", "result": "1.48 µM (active)"}]}, {"smiles": "CC1(C)CC(NC(=O)c2ccc(Cl)c(S(=O)(=O)N(Cc3ccccc3)c3ccccc3)c2)CC(C)(C)N1", "values": [{"measurement": "AC50", "setting": "[13]", "result": "7.96 µM (active)"}, {"measurement": "CC50", "setting": "[14]", "result": "12.7 µM (active)"}, {"measurement": "AC50", "setting": "[15]", "result": "8.14 µM (active)"}, {"measurement": "AC50", "setting": "[16]", "result": "15.7 µM (active)"}, {"measurement": "AC50", "setting": "[17]", "result": "29.4 µM (active)"}, {"measurement": "AC50", "setting": "[18]", "result": "10.3 µM (active)"}, {"measurement": "AC50", "setting": "[19]", "result": "19.4 µM (active)"}]}]}
